{
  "source": "patent US20250255929A1",
  "about": "“METHODS FOR REDUCING RISKS ASSOCIATED WITH HEART FAILURE AND FACTORS ASSOCIATED THEREWITH” (Stealth BioTherapeutics Inc., priority 2012, published 2025)",
  "assay_type_in_all_cases": "in vivo",
  "key": {"C-reactive protein": {"tested_on": "C-reactive protein", "test": "Plasma C-reactive protein (canine ELISA) in dog model of heart failure", "design": "C-reactive protein concentration, BL, Mean / C-reactive protein concentration, 12 Wk, Mean / C-reactive protein concentration, BL / C-reactive protein concentration, 6 Wk / C-reactive protein concentration, 12 Wk: unit not given here", "conditions": "for plasma CRP levels (FIG. 1), in words: HF dogs", "experimental": "(§1) Heart failure was induced in dogs via multiple sequential intracoronary microembolizations as described in Sabbah, et al., Am J Physiol. (1991) 260:H1379-84, herein incorporated by reference in its entirety.\nHalf the dogs were subsequently treated with the mitochondrial peptide; the other half were treated with drug vehicle and served as controls. Peptide treatment was started upon induction of heart failure (HF), defined as left ventricular ejection fraction of approximately 30%. Peripheral venous blood samples were obtained from all dogs at the following time points: 1) when the dogs were normal (baseline, prior to the induction of heart failure); 2) when the dogs were induced into heart failure; 3) at 6 weeks after initiating therapy with the mitochondrial peptide or vehicle (HF+peptide, or HF+vehicle) both administered once daily as subcutaneous injections; and 4) at 12 weeks after initiating therapy with the mitochondrial peptide or vehicle. The daily dose of the peptide was 0.5 mg/kg/day administered […]. Blood samples were drawn on EDTA anticoagulant and were centrifuged at 2,500 RPM and the plasma extracted, aliquoted in 1 ml volumes into crystat tubes and stored at −70° C. until assayed. Once the follow-up was completed in all dogs, the plasma samples were thawed to room temperature and CRP was assayed using a canine specific ELISA kit (ALPCO: Cat #41-CRPCA-E01). The calorimetric method was used to assess the amount of CRP in plasma. CRP concentration was expressed as […]."}, "interleukin-6 (IL-6)": {"tested_on": "interleukin-6 (IL-6)", "test": "Plasma IL-6 (double antibody sandwich ELISA) in dog model of heart failure", "conditions": "for plasma IL-6 levels (FIG. 3), in words: HF dogs", "experimental": "The methods of Example 1 were used to induce heart failure, administer peptide or vehicle and collect plasma. Fourteen dogs were used in this example. Half the dogs were treated with the mitochondrial peptide; the other half were treated with drug vehicle and served as controls. Peptide treatment was started in both groups upon induction of heart failure (HF), defined as left ventricular ejection fraction of approximately 30%.\nIL-6 was quantified in EDTA-plasma using the double antibody sandwich ELISA technique. Briefly, IL-6 (Canine IL-6 Duo Set, Cat #DY1609) was purchased from R&D Systems. The assay was performed based on instructions provided by the supplier with minor modifications. The amount of EDTA-plasma incubated with the antibody plate was 150 μl and incubation time was 18 hours at 4° C. Using standard curves and software, the concentration of IL-6 was expressed as pg/ml."}, "[1]": {"tested_on": "Mitochondrial ATP to ADP ratio", "test": "Mitochondrial ATP to ADP ratio (ApoSENSOR assay) in LV mitochondria, dog model of heart failure", "conditions": "LV mitochondria of HF dogs after three months, 0.5 mg/kg/day, n=5; control 0.38±0.04, p<0.05", "experimental": "Heart failure was induced as described in Example 1. […] Half the dogs were treated with the peptide (n=5); the other half were treated with drug vehicle and served as controls (n=5). Peptide treatment was started upon induction of heart failure (HF), defined as left ventricular ejection fraction of approximately 30%. The daily dose of the peptide was 0.5 mg/kg/day administered intravenously for three months. Subcutaneous daily injections of saline were administered to the controls. Left ventricular tissue was harvested at the end of the three months of treatment. Mitochondria were isolated from the tissue. MK ATP activation was measured using the thallium-sensitive fluorophore assay kit and quantified in relative fluorescence units (RFU) per mg protein. Mitochondrial ATP to ADP ratio was measured using the bioluminescent ApoSENSOR™ assay kit (Enzo Life Sciences, Farmingdale, NY)."}, "Taz1": {"tested_on": "Taz1", "test": "Taz1 mRNA in LV tissue (real-time PCR), dog model of heart failure", "conditions": "LV tissue of HF dogs, 3 months, 0.5 mg/kg once daily s.c., n=6; untreated HF decreased 2.25-fold vs normal; normalized to GAPDH", "experimental": "as §1\nTwelve dogs were subject to coronary microembolization-induced heart failure (LV ejection fraction ˜30%) as described in Example 1. […] RNA was prepared from LV tissue of all 12 dogs at the end of the treatment phase and from the LV of 6 normal (NL) dogs for comparison. mRNA levels of Taz1, MLCL AT1 and ALCAT1 were determined by real-time PCR. Changes in mRNA expression were expressed as fold changes using the CT Method with normalization to […] (GAPDH) as internal control."}},
  "note": "Values joined by “and” are separate entries in the source; they are usually repeats but may differ in a detail not shown here. Equal values may be shown once. Square brackets hold non-standard residues; d marks the D form. Ends that are not written are not given here. Dmt = Cc1cc(O)cc(C)c1C[C@H](N)C(=O)O",
  "data": [
    {"substance": "D-Arg-2′,6′-Dmt-Lys-Phe-NH2 ([dR][Dmt]KF-NH2) [aromatic-cationic peptide]", "values": [
      {"measurement": "plasma CRP levels (FIG. 1), in words", "setting": "C-reactive protein; treatment for 12 weeks", "value": "normal or near normal levels"},
      {"measurement": "plasma CRP levels (FIG. 1), in words", "setting": "C-reactive protein; treatment for six weeks", "value": "reduced CRP levels"},
      {"measurement": "C-reactive protein concentration, 6 Wk", "setting": "C-reactive protein; plasma, individual HF dogs, 6 weeks after initiating therapy, 0.5 mg/kg/day", "value": 1.12},
      {"measurement": "C-reactive protein concentration, 12 Wk, Mean", "setting": "C-reactive protein; plasma, mean of 3 HF dogs, 12 weeks after initiating therapy, 0.5 mg/kg/day", "value": 1.42},
      {"measurement": "C-reactive protein concentration, BL, Mean", "setting": "C-reactive protein; plasma, peptide group mean (3 dogs), baseline, prior to induction of heart failure (before treatment)", "value": 1.82},
      {"measurement": "plasma IL-6 levels (FIG. 3), in words", "setting": "interleukin-6 (IL-6); treatment for 12 weeks", "value": "near normal levels"},
      {"measurement": "plasma IL-6 levels (FIG. 3), in words", "setting": "interleukin-6 (IL-6); treatment for six weeks", "value": "reduced IL-6 levels"},
      {"measurement": "IL-6 concentration, 6 Wk", "setting": "interleukin-6 (IL-6); plasma, individual HF dogs, 6 weeks after initiating therapy", "value": "18.8 pg/ml and 23.4 pg/ml and 24.3 pg/ml and 19.5 pg/ml and 19.6 pg/ml (2×) and 20.5 pg/ml"},
      {"measurement": "IL-6 concentration, 12 Wk", "setting": "interleukin-6 (IL-6); plasma, individual HF dogs, 12 weeks after initiating therapy", "value": "11.7 pg/mL and 11.3 pg/mL and 13.6 pg/mL and 11.5 pg/mL and 12.5 pg/mL and 11.9 pg/mL and 11.4 pg/mL"},
      {"measurement": "IL-6 concentration, 6 Wk, Mean", "setting": "interleukin-6 (IL-6); plasma, mean of 7 HF dogs, 6 weeks after initiating therapy", "value": 20.8, "unit": "pg/mL"},
      {"measurement": "IL-6 concentration, 12 Wk, Mean", "setting": "interleukin-6 (IL-6); plasma, mean of 7 HF dogs, 12 weeks after initiating therapy", "value": 12.0, "unit": "pg/mL"},
      {"measurement": "IL-6 concentration, BL, Mean", "setting": "interleukin-6 (IL-6); plasma, peptide group mean (7 dogs), baseline (before HF and treatment)", "value": 10.1, "unit": "pg/mL"},
      {"measurement": "IL-6 concentration, PRE, Mean", "setting": "interleukin-6 (IL-6); plasma, peptide group mean (7 dogs), heart failure prior to initiating therapy", "value": 26.6, "unit": "pg/mL"},
      {"measurement": "IL-6 concentration, BL", "setting": "interleukin-6 (IL-6); plasma, peptide group, individual dogs, baseline (before HF and treatment)", "value": "9.1 pg/mL and 5.8 pg/mL and 7.0 pg/mL and 12.6 pg/mL and 10.3 pg/mL and 12.5 pg/mL and 13.0 pg/mL"},
      {"measurement": "IL-6 concentration, PRE", "setting": "interleukin-6 (IL-6); plasma, peptide group, individual dogs, heart failure prior to initiating therapy", "value": "29.3 pg/mL and 18.5 pg/mL and 29.2 pg/mL and 18.0 pg/mL and 31.2 pg/mL and 29.4 pg/mL and 30.4 pg/mL"},
      {"measurement": "ATP/ADP (mitochondrial ATP to ADP ratio)", "setting": "[1]", "value": "1.16±0.15"},
      {"measurement": "Taz1 mRNA: attenuated decrease, fold", "setting": "Taz1", "value": 1.23, "unit": "fold"}
    ]}
  ]
}
